# Assay results taken from US8420777B2, “Compounds that inhibit Hsp90 protein-protein interactions with IAP proteins” (University of Massachusetts, priority 2004, dated 2013).
# Legend:
# HeLa cells [1] = assay: Apoptosis by hypodiploid DNA content, propidium iodide flow cytometry; assay type: cell-based, Human; settings: 24 hours
# Method: For determination of apoptosis by hypodiploid DNA content, various tumor cell lines were incubated with increasing concentrations of the cell permeable control scrambled (SEQ ID NO:25) or Survivin peptide (SEQ ID NO:19), harvested after 24 hours (floaters plus attached cells) fixed in 70% ethanol, and stained with 10 μg/ml propidium iodide plus 100 μg/ml RNAse A and 0.05% Triton™ X-100 in PBS, pH 7.4. Cultures were analyzed for DNA content by flow cytometry. For colorimetric quantification of cell viability, an MTT assay was used. Various tumor cell lines were incubated with increasing concentrations of the cell permeable retro-inverso control scrambled P4 or the Survivin-specific P3 peptide, incubated for 24 hours at 37° C. washed twice with Bruffs Media, and 4,5-dimethylthiazol-2-yl)-2,5-diphenyltetrazolium bromide (MTT) (Sigma, St. Louis, Mo.) was added at 5 mg/ml. Decrease in cell viability was analyzed for loss of colorimetric absorption at OD405.
# HeLa cells were incubated with the indicated increasing concentrations of the cell permeable Control (scrambled) or Survivin peptide, harvested after 24 hours at 37° C., and analyzed by hypodiploid DNA content by propidium iodide staining and flow cytometry.
# HeLa cells were incubated with chemotherapeutic drugs Taxol™ (10 μM) or adriamycin (300 nM), or cell permeable control peptide or the Survivin peptide, harvested after 24 hours, and analyzed for induction of apoptosis by hypodiploid DNA content by flow cytometry.
# HeLa cells [2] = assay: Stability of Hsp90 client proteins and caspase-3 proform, Western blot; assay type: cell-based, Human; settings: increasing concentrations, 24 hours
# Method: To determine whether intracellular loading of the Survivin cell permeable peptide reproduced the effect of mAb 8E2 that disrupts the Survivin-Hsp90 interaction in destabilizing Survivin levels in vivo (FIG. 8), HeLa cells were loaded with the indicated increasing concentrations of cell permeable control (SEQ ID NO:25) or Survivin (SEQ ID NO:19) cell permeable peptide, harvested after 24 hours, and analyzed for stability of Hsp90 client proteins, Survivin and Akt. Polyclonal antibody to Akt was obtained from Cell Signaling Technology (Cat. No. 9272).
# [3] = system: HFF, HGF, WS-1 normal cells; assay: MTT colorimetric viability assay, normal cell types; assay type: cell-based, human; settings: 24 hours
# Method: FIGS. 22A and 22B compares the effect of P31 (SEQ ID NO:19) or P33 (SEQ ID NO:25) on apoptosis of tumor cell lines (FIG. 22A) and normal cell lines (FIG. 22B). The following tumor cell lines DU145 (prostate cancer, circles), PC3 (prostate cancer, triangles), or HeLa (cervical carcinoma, squares) were treated with the indicated increasing concentrations of P31 peptide (solid symbols) or control P33 peptide (open symbols), harvested after 24 hours, and analyzed for cell viability using an MTT colorimetric assay. For normal cell types (right panel), HFF (human foreskin fibroblasts, squares), HGF (human fibroblasts, triangles) or WS-1 (human epithelial cells, circles) were treated with P31 (solid symbols) or control scrambled peptide P33, harvested after 24 hours and analyzed for overall cell viability by MTT colorimetric assay. All cell lines were from ATCC.
# N-terminus of Hsp90 = biological target: T1, N-terminus of Hsp90 (Homo sapiens, UniProt P07900, S63T); assay: ELISA of immobilized peptide with Hsp90 fragments; assay type: binding; settings: compared to P33 peptide
# T1 construct: GST (N); made in house; host or cells: E. coli
# Method: ELISA experiments were performed by immobilizing recombinant Survivin (r-Survivin) ([…]) or recombinant Hsp90 (r-Hsp90) (10 μg/ml) on plastic microtiter wells (Immulon™-2, Dynatech Laboratories, Chantilly, Va.) using bicarbonate buffer, pH 9.5 (100 μl/well) for 18 hours at 4° C. Bound protein was blocked with 3% gelatin for 1 hour at 37° C., rinsed with washing buffer (TBS pH 7.4, 0.1% Tween™, 0.1% BSA) and incubated for 1 hour at 37° C. with different concentrations of a test protein to determine if the test protein bound the immobilized protein.
# Nucleotide sequences encoding full length Hsp90α (SEQ ID NO:21; amino acids 1-732) or three fragments: N-Hsp90 (amino acids 1-272 of SEQ ID NO:21), M-Hsp90, (amino acids 273-617 of SEQ ID NO:21), and C-Hsp90 (amino acids 629-732 of SEQ ID NO:21) were cloned by PCR in pGex-4T3 (Pharmacia Biotech.) and pFLAG-CMV 6c (Sigma) using the BamHI cloning sites. GST fusions of full length Hsp90, or individual Hsp90 fragments were expressed in E. coli and bound to glutathione beads (Sigma). Purified recombinant Survivin devoid of the GST frame was obtained as described in Example 2.
# FIGS. 24A and 24B identify the location of P31 peptide's binding site as the N-terminus domain of Hsp90. […] After washing, binding of the individual Hsp90 fragments to the immobilized peptides was detected with an antibody to Hsp90. […]
# HL-60 cells = assay: Cell killing by trypan blue exclusion; assay type: cell-based
# Method: The expression and function of the survivin-Hsp90 pathway in acute myelogenous leukemia (AML) cell lines was analyzed. Survivin was abundantly expressed in four AML cell lines, U937, K-562, THP-1 and HL-60, by Western blotting (FIG. 29A).
# [4] = system: U937, K562, HL60, THP1 AML cell lines; assay: MTT cell viability in AML cell lines; assay type: cell-based, human
# Method: FIG. 30 is a graph depicting killing activity of survivin K79-G83 in AML cells. The indicated human AML cell lines (U937, K562, HL60, and THP1) were incubated with scrambled (SEQ ID NO:28) or Survivin (SEQ ID NO:20) peptides and evaluated for cell viability by MTT.
# The effect of the K79-G83 Survivin peptide was characterized in more detail for anti-tumor activity in AML. The K79-L87 (SEQ ID NO:19) and K79-G83 peptides (SEQ ID NO:20) were incubated with AML cells, and cell viability was measured using MTT.
# recombinant Hsp90 = biological target: T2, recombinant Hsp90 (Homo sapiens, UniProt P07900, S63T); assay: ELISA binding to recombinant Hsp90
# T2 construct: GST-Hsp90 (amino acids 1-732); GST (N); made in house; host or cells: E. coli
# From the text: FIG. 31 is a graph depicting Hsp90 binding by Survivin peptides, measured by ELISA. Data are the mean±S.D. of two independent experiments.
sequence,measurement,setting,value
RQIKIWFQNRRMKWKKKHSSGCAFL (Synthetically generated peptide) [P31],cell viability reflected by hypodiploid DNA content,"HeLa cells [1]; increasing concentrations, 37° C.",massive loss of cell viability
same,cell population with hypodiploid DNA content (apoptotic),"HeLa cells [1]; peptides, comparison with chemotherapeutic drugs",results in the appearance of a large cell population with hypodiploid DNA content
same,levels of Survivin and Akt,HeLa cells [2],low levels of Survivin and Akt
same,cell death in normal cell types (MTT),[3],did not induce cell death in any of the three normal cell types
same,binding to the N-terminus of Hsp90 (OD405),N-terminus of Hsp90,bound specifically
same,cell killing (trypan blue exclusion),HL-60 cells,dose-dependent and complete cell killing
same,"cell viability (MTT), killing of AML cell lines",[4],efficiently killed all AML cell lines tested
same,binding to recombinant Hsp90 in vitro,recombinant Hsp90,comparably bound recombinant Hsp90
